Values joined by “and” are separate entries in the source; they are usually repeats but may differ in a detail not shown here. Equal values may be shown once. “Also recorded” adds a separate entry of the source.
Experiments:
[1] = tested on: primary WT CFTR-expressing HBEs; assay: Ussing chamber Isc, forskolin-stimulated Cl- secretion; format: cell-based, human; details: for effect on the bumetanide-insensitive current: applied after forskolin and bumetanide, VX-445 10 µM, acetazolamide 1 µM
From the text: (§1) Primary human bronchial epithelial cells (HBEs) were collected from unused or discarded samples from the Center for Organ Recovery and Education via the University of Pittsburgh Pulmonary, Allergy, Critical Care, and Sleep Medicine Lung Biobank and Repository. All experimental procedures involving the use of HBEs were approved by the institutional review board (IRB STUDY19090084) and the Committee for Oversight of Research and Clinical Training Involving Decedents (CORID number 451) at the University of Pittsburgh. At all times, authors were blind to the identity of HBE donors. HBEs were cultured using the Vertex method ([72]). Studies were carried out on WT CFTR HBEs from 11 ([13]) donors and homozygous F508del/F508del CFTR HBEs from five ([5]) separate donors. HBEs were plated on Costar Transwell permeable supports ([…], 6.5 mm insert, polyester membrane, Corning) and grown at an air–liquid interface for 5+ weeks in HBE differentiation medium containing 2% Ultroser-G. Basolateral media were replaced three times per week. For whole-cell patch-clamp studies, HBEs were maintained in BronchiaLife airway media (LifeLine Cell Technology, LS-1047) and plated onto poly-L-lysine-coated coverslips (see below).
(§2) Costar Transwell inserts were mounted in a modified Ussing chamber (P2300, Physiologic Instruments) and the monolayers continuously short-circuited (VCC MC8, Physiologic Instruments) by forcing the transepithelial voltage to 0 mV. Short-circuit current (Isc) measurements were taken in symmetric solutions, containing (in mM): 120 NaCl, 25 NaHCO3, 3.3 KH2PO4, 0.8 K2HPO4, 1.2 CaCl2, 1.2 MgCl2, and 10 glucose. The pH of the solution is 7.4 when gassed with 95% O2–5% CO2 at 37°C. Compounds were added cumulatively following the establishment of a new stable current response. Amiloride was added to the apical membrane, while all other compounds were added to both membranes due to their lipophilic nature. In all experiments, 10 µM amiloride was used to inhibit sodium absorption. Percent inhibition was calculated as the change in Isc (ΔIsc) between the forskolin or DCEBIO stable current level and the Isc following addition of the compound being assessed divided by the ΔIsc between the stable forskolin- or DCEBIO-induced Isc and the Isc following bumetanide addition.

KCa3.1 [2] = molecular target: T1, KCa3.1 (Homo sapiens, UniProt O15554); assay: Excised inside-out patch-clamp on HEK-KCa3.1; format: biochemical; details: TRAM-34 3 µM after DCEBIO and VX-445 10 µM
T1 construct: expressed in transfected cells
Protocol: (§3) Our Isc results are consistent with VX-445 inhibiting KCa3.1 in HBEs. To directly assess this possibility, we initially carried out whole-cell patch-clamp studies on undifferentiated HBEs. […] Upon application of 10 µM VX-445, a majority of this current was inhibited, averaging 87 ± 4% (n = 3, P < 0.005; Fig. 3B). A summary of the current–voltage (I–V) relationship—normalized to cell capacitance—is shown in Fig. 3C, which also includes the whole-cell I–V in the presence of Tram-34. […] To ensure isolation of KCa3.1 currents and to more fully characterize this VX-445-dependent inhibition of KCa3.1, we utilized HEK cells heterologously expressing KCa3.1 (HEK-KCa3.1). Initially, we confirmed our results from HBEs, using whole-cell recordings, as above. […] In seven experiments, this inhibition averaged 58 ± 7% (P < 0.005). […] It is well recognized that drugs are carried to their targets in the blood bound to albumin, which ranges from 3.4 to 5.4%. Thus, we determined whether VX-445 (10 µM) would inhibit KCa3.1 expressed in HEK cells in the presence of 3.4% albumin. In four experiments, VX-445 inhibited an average of 51 ± 17% of the whole-cell KCa3.1 current, which is not different from that observed in the absence of albumin. To confirm the direct effect of VX-445 on KCa3.1, we utilized the excised, inside-out patch-clamp technique. The patch was then exposed to DCEBIO (100 µM) to further activate the channels ([34–37])—analogous to our Isc studies in HBEs. […] In three experiments, VX-445 inhibited an average of 63 ± 6% of the KCa3.1 current. Based on these experiments, we determined the apparent inhibitory constant, Ki for VX-445. For these experiments, patches were excised into saturating Ca^2+ (3 µM) to ensure maximal KCa3.1 activation. These studies were carried out in the absence of DCEBIO to eliminate the possibility that the inhibition observed was due to competition for the DCEBIO-binding site.
(§4) HEK cells stably expressing KCa3.1 (IK1, SK4), KCa2.3 (SK3), and KCa2.2 (SK2) were generated and cultured as previously described by us ([37], [66–71]).
(§5) HEK cells expressing the channel of interest were plated onto poly-L-lysine-coated glass coverslips 1–2 days prior to patch-clamp analysis. Electrophysiological recordings in the excised, inside-out, and whole-cell patch-clamp configurations were performed as recently described ([14]). For excised patch-clamp recordings, the pipette solution contained (in mM): 140 K-gluconate, 5 KCl, 1 CaCl2, 1 MgCl2, and 10 HEPES. The pH was adjusted to 7.2 with KOH. The bath solution contained (in mM): 145 K-gluconate, 5 KCl, 1.3 MgCl2, 10 HEPES, and 1 EGTA. Sufficient CaCl2 was added to obtain the desired free Ca^2+ concentration at a pH of 7.2 (adjusted with KOH). When recording KCa3.1 channels, ATP (300 µM) was added to the bath to diminish channel rundown ([73]). All recordings were carried out at a voltage of −100 mV, referenced to the extracellular compartment, as is standard. The apparent Ki and Hill coefficient for each CFTR corrector on KCa3.1, KCa2.3, and KCa2.2 were determined during a continuous recording by step-wise addition of increasing concentrations of compound and fitting the resultant relative remaining current to a Hill equation (Prism v. 10.1.0). The zero current level was determined by the addition of a 0 Ca^2+ solution (zero-added Ca^2+ plus 1 mM EGTA) at the end of the experiment. In the case of KCa3.1, TRAM-34, a known inhibitor of KCa3.1 ([45]), was used to confirm expression of the channel. For whole-cell experiments, pipettes contained (in mM): 145 K-gluconate, 10 EGTA, 7.5 CaCl2, 2 MgCl2, 3 mM NaATP, and 10 HEPES. The bath solution contained (in mM): 140 K-gluconate, 5 KCl, 1.0 MgCl2, 10 HEPES, and 2 CaCl2. Current–voltage relationships were determined by stepping from a holding potential of −80 mV to +80 mV in 20 mV increments for 400 ms. […]

[3] = molecular target: T2, endogenous KCa3.1 in WT CFTR-expressing HBEs (Homo sapiens, UniProt O15554); assay: Whole-cell patch-clamp on undifferentiated HBEs; format: cell-based; details: TRAM-34 subsequent to VX-445, Fig 3C single cells
T2 construct: endogenous in cells; host or cells: undifferentiated primary human bronchial epithelial cells (WT CFTR donors)
Protocol: as §3
Primary human bronchial epithelial cells (HBEs) were collected from unused or discarded samples from the Center for Organ Recovery and Education via the University of Pittsburgh Pulmonary, Allergy, Critical Care, and Sleep Medicine Lung Biobank and Repository. All experimental procedures involving the use of HBEs were approved by the institutional review board (IRB STUDY19090084) and the Committee for Oversight of Research and Clinical Training Involving Decedents (CORID number 451) at the University of Pittsburgh. At all times, authors were blind to the identity of HBE donors. HBEs were cultured using the Vertex method ([72]). Studies were carried out on WT CFTR HBEs from 11 ([13]) donors and homozygous F508del/F508del CFTR HBEs from five ([5]) separate donors. […]

WT CFTR HBEs = assay: Ussing chamber Isc, DCEBIO-induced Cl- secretion; format: cell-based, human
From the text: as §1, §2

KCa3.1 [4] = molecular target: T1, KCa3.1; assay: Whole-cell patch-clamp on HEK cells heterologously expressing KCa3.1; format: cell-based; details: for effect on KCa3.1 current: 10 µM, data not shown
Protocol: as §3, §4, §5

[5] = tested on: BKCa (KCa1.1, KCNMA1) channels; design: method as in PMID 38954478; details: primary HBEs and HEK cells heterologously expressing the channel; cited from earlier work

## CCCCNc1cc(C(=O)O)cc(S(N)(=O)=O)c1Oc1ccccc1 [bumetanide]
[1]; Fig 1F, single filters, after forskolin
  Isc in the presence of bumetanide: 21 and 18 and 15 and 17 and 14 and 19 and 23 and 20

## CC(C)(O)[C@H]1O[C@H]2CC[C@@]3(C)[C@@](O)(CC[C@H]4Cc5c([nH]c6ccccc56)[C@@]43C)C2=CC1=O [paxilline]
[1]; Fig 2B, single filters, paxilline 10 µM after forskolin and VX-445
  Isc in the presence of paxilline: 12 and 11 and 15 and 20 and 21 and 19 and 14
[1]; paxilline 10 µM after forskolin and VX-445 10 µM
  effect on Isc subsequent to VX-445-induced decrease: had no effect

## C=C[C@@]1(C)CC(=O)[C@]2(O)[C@@]3(C)[C@@H](O)CCC(C)(C)[C@@H]3[C@H](O)[C@H](OC(C)=O)[C@@]2(C)O1 [forskolin]
[1]; Fig 1F, single filters
  Isc in the presence of forskolin: 31 and 30 and 24 and 28 and 26 and 34 and 27 and 32
[1]; Fig 2B, single filters
  Isc in the presence of forskolin: 17 and 18 and 23 and 24 and 19 and 21

## CC(=O)Nc1nnc(S(N)(=O)=O)s1 [acetazolamide]
[1]
  effect on the bumetanide-insensitive current: partially inhibited the remaining current

## Clc1ccccc1C(c1ccccc1)(c1ccccc1)n1cccn1 [TRAM-34]
KCa3.1 [2]
  effect on current remaining after VX-445: inhibited the remainder of the current
[3]; -40 mV
  whole-cell current normalized to cell capacitance: 0.875 and 0.576
[3]; -60 mV
  whole-cell current normalized to cell capacitance: 0.344 and 0.305
[3]; -80 mV
  whole-cell current normalized to cell capacitance: 0.0478 and 0.0385
[1]; TRAM-34 5 µM, no VX-445
  effect on forskolin-stimulated Isc: inhibits a portion of the current
[1]; TRAM-34 after VX-445 10 µM
  effect on forskolin-stimulated Isc following VX-445: failed to inhibit additional current
[1]
  effect on the bumetanide-insensitive current: failed to decrease
WT CFTR HBEs; TRAM-34 5 µM, DCEBIO 100 µM, no VX-445
  effect on DCEBIO-stimulated Isc: inhibits the DCEBIO-stimulated Isc response
WT CFTR HBEs; TRAM-34 after DCEBIO and VX-445 10 µM
  effect on DCEBIO-stimulated Isc following VX-445: had little effect
KCa3.1 [4]; TRAM-34 1 µM after VX-445 10 µM
  effect on current remaining after VX-445: inhibited the remainder of the current

## CC(C)(C)c1cc(C(C)(C)C)c(NC(=O)c2c[nH]c3ccccc3c2=O)cc1O [VX-770, ivacaftor]
[5]
  effect on BKCa: had no effect

## Cc1ccc(NC(=O)C2(c3ccc4c(c3)OC(F)(F)O4)CC2)nc1-c1cccc(C(=O)O)c1 [VX-809]
KCa3.1 [4]
  effect on KCa3.1 current: failed to inhibit

## CC1(C)C[C@@H]2CCCNc3cccc(n3)S(=O)(=O)NC(=O)c3ccc(-n4ccc(OCCC5C6(CC6)C56CC6)n4)nc3N1C2 [VX-121, vanzacaftor]
KCa3.1 [4]; HEK293, VX-121 10 µM, three experiments, read-out: inhibition of whole-cell KCa3.1 current
  inhibition at 10 µM: 85 ± 8%
[5]
  effect on BKCa: act as direct potentiators

## CC(C)(CO)c1cc2cc(NC(=O)C3(c4ccc5c(c4)OC(F)(F)O5)CC3)c(F)cc2n1C[C@@H](O)CO [VX-661, tezacaftor]
[1]; VX-661 10 µM
  effect on forskolin-mediated Cl- secretion: had no effect
KCa3.1 [4]
  effect on KCa3.1 current: had no effect; also recorded: failed to inhibit
[5]
  effect on BKCa: had no effect
